Laboratory results taken from PMC4632086, “Effects and possible mechanisms of action of acacetin on the behavior and eye morphology of Drosophila models of Alzheimer’s disease” (Scientific Reports, 2015).

Assays:
Assay type in all cases: in vivo, Drosophila melanogaster
[1] = system: GMR < APP/BACE-1 flies; experiment: Light and scanning electron microscopy of adult compound eyes
Procedure: GMR < APP/BACE-1 flies were cultured from the egg stage in polystyrene vials containing standard media supplemented with acacetin (100, 300, and 500 μM) in 0.1% DMSO, based on the preliminary test results. The controls received 0.1% DMSO only. […] The morphology of the compound eyes was observed using an EZ4 HD stereo microscope (×35) equipped with an Integrated 3.0 Mega-Pixel CMOS camera (Leica, Hicksville, NY, USA). The flies with aberrant eye phenotypes were collected, and the number of the flies with dark deposits in the eye was counted.
For SEM, the anesthetized male flies (30 days old) were attached to a copper mount using silver paint as a conducting adhesive, as described previously. They were then put directly into the viewing chamber of an SEM without prior coating, as described by Hartman and Hayes[76]. The external surface morphology of the compound eye was visualized using a Supra 55VP field-emission scanning electron microscope (Carl Zeiss, Jena, Germany) operated at 15 kV.

[2] = system: elav < APP/BACE-1 flies; experiment: Lifespan assay; conditions: males
Procedure: Groups of 20 newly emerged male elav < APP/BACE-1 flies, cultured in vials as stated previously, were separately transferred to vials containing media supplemented with acacetin (100, 300, and 500 μM) every 4 days. The controls received 0.1% DMSO. The median life time (T1/2) was defined as the time when the survivor function equaled 50%, because median survivorship is a more reliable index than mean survival time, as described by Chakraborty and colleagues. All treatments were repeated 10 times using 20 males per replicate.

[3] = system: human BACE-1 mRNA; experiment: Real-time qRT-PCR, human BACE-1 mRNA in elav < APP/BACE-1 flies; conditions: 100, 300, and 500 μM; 20-day-old males
Procedure: Real-time qRT-PCR with SYBR Green dye was performed to determine whether acacetin affected the expression levels of the human APP and BACE-1 mRNAs in the transgenic flies. The elav < APP/BACE-1 and elav < GFP flies were cultured from the egg stage in vials, as stated previously. The controls received 0.1% DMSO only. The total RNA was extracted from 30 heads (30 mg) of male elav < APP/BACE-1 and elav < GFP flies (20 days old) using the RNeasy Mini Kit (Qiagen, Hilden, Germany) according to the manufacturer’s instructions. The residual genomic DNA was removed using RQ1 RNase-Free DNase (Promega, Fitchburg, WI, USA), and 1 μg of the total RNA from each sample was used for complementary DNA (cDNA) synthesis with an oligo (dT) 12–18 primer (Invitrogen, Carlsbad, CA, USA) according to the protocol of the SuperScript III Reverse Transcriptase Kit. Real-time qRT-PCR was performed in 96-well plates using the StepOne Plus Real-Time PCR System (Applied Biosystems, Darmstadt, Germany). […] The mRNA expression levels of the target genes were normalized to the mRNA expression level of the housekeeping gene rp 49 that encodes the Drosophila ribosomal protein 49, and analyzed by the 2^–ΔΔCT method using the StepOne Software v2.3 and DataAssist Software (Applied Biosystems). The results are expressed as the means ± SEs of duplicate samples from three independent experiments.

[4] = system: human APP; experiment: Western blot, APP protein in heads of elav < APP/BACE-1 flies; conditions: 20-day-old males
Procedure: The elav < APP/BACE-1 flies were cultured from the egg stage, as described previously. The lysates were obtained from the heads of 50 male flies (20 days old) by placing the heads in 100 μL RIPA buffer (pH 8.0) containing a 1% protease inhibitor cocktail. The controls received 0.1% DMSO. The lysates were centrifuged at 14,000 rpm for 30 min at 4 °C. The protein content of the supernatant was determined using a Bradford Protein Assay kit (Sigma-Aldrich) and BSA was used as the standard. The total proteins (30 μg/sample for APP and BACE-1 detection; 70 μg/sample for Aβ detection) were mixed with an equal volume of 5× sample buffer[81] containing 40 mM of DL-dithiothreitol, boiled for 10 min, and then loaded onto 8, 10, and 12% sodium dodecyl sulfate-polyacrylamide gels using a Mini-Protean 3 electrophoresis cell (Bio-Rad, Hercules, CA, USA) for APP, APP-CTF (APP-αCTF and APP-βCTF) and AICD, BACE-1, and Aβ detection, respectively. After electrophoresis at 110 V in 2 h, the proteins from the gels were transferred onto a polyvinyl difluoride membrane (Pall Corporation, Pensacola, FL, USA) using an electroblotting apparatus. The membrane was then blocked with 5% skim milk (BD Difco, Flanklin Lakes, NJ, USA) in PBS containing 0.1% (v/v) Tween-20 (0.1% PBS-T) at room temperature for 1 h, and further incubated overnight at 4 °C with a 1:4,000 dilution of an anti-APP C-terminal antibody to detect the cleaved APP product, a 1:1,000 dilution of anti-BACE-1, and a 1:1,000 dilution of anti-amyloid (4G8). After washing with 0.1% PBS-T three times at 10 min intervals, the membranes were further incubated for 2 h with a goat anti-rabbit IgG H&L (HRP) secondary antibody at a1:4,000 dilution for APP and BACE-1 and a goat anti-mouse lgG-HRP at a 1:5,000 dilution for β-amyloid. […] The differences in protein expression were quantified using a Molecular Imager Gel Doc XR system (Bio-Rad, Hercules, CA, USA) and normalized to actin expression on the same membrane. The results are expressed as the means ± SEs of duplicate samples from three independent experiments.

SMILES: COc1ccc(-c2cc(=O)c3c(O)cc(O)cc3o2)cc1 [acacetin]
- ratio of female flies with dark deposits in the eyes ([1]; 100, 300, and 500 μM in media, 1-day-old females, vehicle DMSO […]): 6.3–8.0%
- ratio of male flies with dark deposits in the eyes ([1]; 100, 300, and 500 μM in media, 1-day-old males, vehicle DMSO 18.7%): 5.0–7.0%
- ommatidial fusion in the central side of the eyes ([1]; 100, 300, and 500 μM, light microscopy, vs vehicle-fed flies): significantly suppressed ommatidial fusion
- ommatidial fusion at the edges of the eyes ([1]; 300 and 500 μM, light microscopy): ameliorated ommatidial fusion
- median life time (T1/2) ([2]; 100 μM, vehicle 26 days, elav-Gal4/+ 36 days): 31 days
- lifespan ([2]; 100, 300, and 500 μM, vs vehicle-fed transgenic flies): did not significantly increase the lifespan
- median life time (T1/2) ([2]; 300 and 500 μM): did not significantly extend the T1/2
- human BACE-1 mRNA levels, % of the control levels [3]: 82–89%
- APP levels, % of the control levels ([4]; 100 μM, not significantly different from control): 86%
- APP levels, % of the control levels ([4]; 300 μM): 70%
- APP levels, % of the control levels ([4]; 500 μM): 69%
